Reference: patent publication US20230227484A1, “PYRIMIDINE COMPOUND AS AXL INHIBITOR” (NANJING CHIA TAI TIANQING PHARMACEUTICAL CO., LTD., priority 2020, published 2023)

Experiments:
[1] = tested on: MV-4-11 (human myeloid monocytic leukemia cell line); assay: Proliferation inhibition activity of compounds to MV-4-11 cells (CellTiter-Glo); format: cell-based; conditions: MV4-11 cells, 72 h dosing
How it was run: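 MV-4-11 cells, plated 24 h earlier, were exposed 72 h to compounds in 10-point 3-fold dilutions (0.5% DMSO final). Viability read by CellTiter-Glo luminescence; inhibition normalized to blank and untreated controls, IC50 from variable-slope log(inhibitor)-response fit.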

[2] = Pharmacokinetic study of compounds on ICR mice; format: in vivo; conditions: mouse, po, male ICR mice, plasma; for Cmax / Tmax / half-life: 10 mg-kg^1 by gavage; for AUC(0-t): 10 mg/kg-kg^1 by gavage, read-out: AUC0-24
Protocol: Each compound is prepared with DMSO into a 10 mg/mL stock solution.
Preparation of mixed solvent: Tween 80: PEG400: Water=1:9:90 (v/v/v)
450 μl of the compound DMSO stock solution with a concentration of 10 mg/nmL is accurately sucked into a glass bottle, and added with an appropriate volume of DMSO and mixed solvent, wherein a ratio of the solvent in the final formulation is DMSO: mixed solvent (v/v)=10:90. The mixed solution is vortexed (or ultrasonically treated), and dispersed uniformly to obtain 4.5 mL. administration test solutions with a concentration of 1 mg/nL, respectively.
Male 6-10 week old ICR mice (sourced from: Beijing Vital River Laboratory Animal Technology Co., Ltd.) are taken, 6 mice in each group. The mice are fasted overnight and fed 4 h after the administration. On the day of the experiment, the mice are administrated with 10 mg-kg^1 of compound test solution by gavage. After administration, about 100 μL of blood is harvested from the orbits of the mice at 0 min, 5 mmn, 15 mmn, 30 min, 14 h 2 h, 4 h, 8 h, and 24 h, and placed in EDTA-K2 anticoagulant tubes. The whole blood sample is centrifuged at 1500 to 1600 g for 10 mm, and the plasma obtained by separation is stored in a refrigerator at −40 to −20° C. for biological sample analysis. The blood drug concentration is determined by an LC-MS/MS method.
A non-compartmental model in Pharsight Phoenix 7.0 is used to calculate pharmacokinetic parameters. The specific results are shown in 5 the table below.

[3] = tested on: human acute monocytic leukemia cell MV-4-11 xenograft tumor; assay: In-vivo efficacy of compound for MV4-11 xenograft tumor model of nude mouse; conditions: MV4-11, po, once a day, end of experiment, MV-4-11 xenograft nude mice; for response vs control in vivo at 5 mg/kg/day / inhibition in vivo at 5 mg/kg/day: intragastric 5 mg/kg/d
Protocol: Inhibitory effects of a compound and a positive drug on the in-vivo tumor growth of a xenograft tumor model of a nude mouse on human acute monocytic leukemia cell MV-4-11 are tested.
MV-4-11 cells in a logarithmic growth phase are harvested, resuspended after cell counting, and adjusted in cell concentration to 7.0×10^7 cells/mL. The resuspended solution is injected into the right armpit of the nude mice subcutaneously. Each animal is inoculated with 200 μL (14×10^6 cells) of the suspended solution to establish a MV-4-11 xenograft tumor model. Afer the tumor volume reaches 100-300 mm^3, tumor-bearing mice in good health and similar tumor volume are selected.
The compound and the positive drug are vortexed with a suitable solvent and then ultrasonicated to completely dissolve the compound. Then, an appropriate volume of citric acid buffer is slowly added, and the mixed solution is vortexed to make the solution mixed uniformly to obtain administrative formulations having concentrations of 0.1, 0.5, and 1 mg-mL^−1.
Solvent control group: PEG400 & citric acid buffer (20:80, v:v).
The modeled mice are randomly divided into groups (n=6), and administrated with the relevant compounds and positive drugs on the day of grouping. After 21 days or after the tumor volume of the solvent control group reaches 2000 mm^3, the experiment is terminated (whichever reaches the index first), and the administration volume is 10 mL-kg^−1. Both the compound and the positive drug are administered by gavage, once a day. After the experiment starts, the tumor diameter and animal body weight are measured twice a week, and the tumor volume is calculated.
The tumor volume(TV) calculation formula is: tumor volume(mm^3)=l×w^2/2,
The calculation formula of relative tumor volume(RTV) is: RTV=TVt/TVinitial
The calculation formula of relative tumor proliferation rate (% T/C) is: % T/C=100%×(RTVT/RTVC)

[4] = read-out: Relative tumor proliferation rate (% T/C)
[5] = read-out: Tumor growth inhibition rate (TGI %)

SMILES	IC50 [1] [nM]	Cmax [2] [ng/mL]	Tmax [2] [h]	half-life [2] [h]	AUC(0-t) [2] [ng·h/mL]	response vs control in vivo at 5 mg/kg/day [3, 4] [%]	inhibition in vivo at 5 mg/kg/day [3, 5] [%]	response vs control in vivo at 1 mg/kg/day ([3]; intragastric 1 mg/kg/d, read-out: Relative tumor proliferation rate (% T/C)) [%]	inhibition in vivo at 1 mg/kg/day ([3]; intragastric 1 mg/kg/d, read-out: Tumor growth inhibition rate (TGI %)) [%]
CP(C)(=O)c1ccccc1Nc1nc(Nc2ccc3c(c2)CC[C@@H](N2CCCC2)CC3)ncc1Cl [Example 10, (S)-(2-((5-chloro-2-((7-(pyrrolidin-1-yl)-6,7,8,9-tetrahydro-5H-benzo[7]annulen-2-yl)amino)pyrimidin-4-yl)amino)phenyl)dimethyl phosphine oxide]	5.49	349	0.25	3.33	1000	3.7	106		
CNC(=O)c1cc(F)ccc1Nc1nc(Nc2ccc3c(c2)CC[C@@H](N2CCCC2)CC3)ncc1Cl [Example 19, (S)-2-((5-chloro-2-((7-(pyrrolidin-1-yl)-6,7,8,9-tetrahydro-5H-benzo[7]annulen-2-yl)amino)pyrimidin-4-yl)amino)-5-fluoro-N-methylhenzamide]	1.6	342	1	3.05	3540			28	78
COCc1ccc(Nc2nc(Nc3ccc4c(c3)CC[C@@H](N3CCCC3)CC4)ncc2Cl)c(P(C)(C)=O)c1 [Example 115, (S)-(2-((5-chloro-2-((7-(pyrrolidin-1-yl)-6,7,8,9-tetrahydro-5H-benzo[7]annulen-2-yl)amino)pyrimidin-4-yl)amino)-5-(methoxymethyl)phenyl)dimethylphosphine oxide]	6.97	324	2.17		1300	23	85		

The next lines start with results.

IC50 [1] [nM]	Cmax [2] [ng/mL]	Tmax [2] [h]	half-life [2] [h]	AUC(0-t) [2] [ng·h/mL]	SMILES	response vs control in vivo at 5 mg/kg/day [3, 4] [%]	inhibition in vivo at 5 mg/kg/day [3, 5] [%]	response vs control in vivo at 1 mg/kg/day ([3]; intragastric 1 mg/kg/d, read-out: Relative tumor proliferation rate (% T/C)) [%]	inhibition in vivo at 1 mg/kg/day ([3]; intragastric 1 mg/kg/d, read-out: Tumor growth inhibition rate (TGI %)) [%]
5.24	69	1	2.06	307	CP(C)(=O)c1c(Nc2nc(Nc3ccc4c(c3)CC[C@@H](N3CCCC3)CC4)ncc2Cl)ccc2nccnc12 [Example 47, (S)-(6-((5-chloro-2-((7-(pyrrolidin-1-yl)-6,7,8,9-tetrahydro-5H-benzo[7]annulen-2-yl)amino)pyrimidin-4-yl)amino)quinoxalin-5-yl)dimethyl phosphine oxide]	15	94		
6.61	676	1	1.81	2200	Cc1ccc(Nc2nc(Nc3ccc4c(c3)CC[C@@H](N3CCCC3)CC4)ncc2Cl)c(P(C)(C)=O)c1 [Example 53, (S)-(2-((5-chloro-2-((7-(pyrrolidin-1-yl)-6,7,8,9-tetrahydro-5H-benzo[7]annulen-2-yl)amino)pyrimidin-4-yl)amino)-5-methylphenyl) dimethyl phosphine oxide]	31	79		
